Test results from ChEMBL document CHEMBL5465560, “Selectivity Literature for EUbOPEN Chemogenomic Library” (2024).
Each block holds one molecule with its values, some of them ahead of it.

Legend:
[1] = target: AP2-associated protein kinase 1 (Homo sapiens, UniProt Q2M2I8); assay: Selectivity interaction (LanthaScreen Eu Kinase Binding Assay) EUB0001632a AAK1; conditions: at 10 µM
[2] = target: Cyclin-dependent kinase 4/cyclin D1 (Homo sapiens, UniProt P11802); assay: Selectivity interaction (Competition-binding assay (DiscoverX)) EUB0001632a CDK4; format: protein-complex assay
[3] = target: Tyrosine-protein kinase JAK1 (Homo sapiens, UniProt P23458); assay: Selectivity interaction (ActivX KiNativ screen (kinase selectivity in THP-1 cell lysates)) EUB0000639a JAK1; format: subcellular; conditions: lysate, at 0.2 µM
[4] = target: Mast/stem cell growth factor receptor Kit (Homo sapiens, UniProt P10721); assay: Selectivity interaction (Kinase panel (Invitrogen)) EUB0000639a KIT; conditions: at 200 nM
[5] = target: T1, Serine/threonine-protein kinase Sgk1 (Homo sapiens) (UniProt O00141); assay: Selectivity interaction (KinomeScan (DiscoverX)) EUB0000695a SGK1; conditions: at 100 nM
T1 sequence (whole entry): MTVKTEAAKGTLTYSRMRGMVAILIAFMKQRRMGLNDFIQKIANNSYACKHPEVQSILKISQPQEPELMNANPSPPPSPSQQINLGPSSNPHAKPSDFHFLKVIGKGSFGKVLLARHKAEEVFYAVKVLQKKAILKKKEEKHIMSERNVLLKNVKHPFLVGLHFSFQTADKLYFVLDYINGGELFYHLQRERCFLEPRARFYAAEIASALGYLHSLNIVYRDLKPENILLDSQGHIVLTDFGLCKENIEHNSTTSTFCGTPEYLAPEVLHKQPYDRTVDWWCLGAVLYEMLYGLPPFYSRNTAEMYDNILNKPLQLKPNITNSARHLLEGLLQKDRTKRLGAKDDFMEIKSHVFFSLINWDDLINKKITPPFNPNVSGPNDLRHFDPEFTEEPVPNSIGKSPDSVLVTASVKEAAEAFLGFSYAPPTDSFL

[6] = target: T2, Ephrin type-B receptor 4 (Homo sapiens) (UniProt P54760); assay: Selectivity interaction (KinomeScan (DiscoverX)) EUB0001049a EPHB4; conditions: at 1 µM
T2 sequence (whole entry): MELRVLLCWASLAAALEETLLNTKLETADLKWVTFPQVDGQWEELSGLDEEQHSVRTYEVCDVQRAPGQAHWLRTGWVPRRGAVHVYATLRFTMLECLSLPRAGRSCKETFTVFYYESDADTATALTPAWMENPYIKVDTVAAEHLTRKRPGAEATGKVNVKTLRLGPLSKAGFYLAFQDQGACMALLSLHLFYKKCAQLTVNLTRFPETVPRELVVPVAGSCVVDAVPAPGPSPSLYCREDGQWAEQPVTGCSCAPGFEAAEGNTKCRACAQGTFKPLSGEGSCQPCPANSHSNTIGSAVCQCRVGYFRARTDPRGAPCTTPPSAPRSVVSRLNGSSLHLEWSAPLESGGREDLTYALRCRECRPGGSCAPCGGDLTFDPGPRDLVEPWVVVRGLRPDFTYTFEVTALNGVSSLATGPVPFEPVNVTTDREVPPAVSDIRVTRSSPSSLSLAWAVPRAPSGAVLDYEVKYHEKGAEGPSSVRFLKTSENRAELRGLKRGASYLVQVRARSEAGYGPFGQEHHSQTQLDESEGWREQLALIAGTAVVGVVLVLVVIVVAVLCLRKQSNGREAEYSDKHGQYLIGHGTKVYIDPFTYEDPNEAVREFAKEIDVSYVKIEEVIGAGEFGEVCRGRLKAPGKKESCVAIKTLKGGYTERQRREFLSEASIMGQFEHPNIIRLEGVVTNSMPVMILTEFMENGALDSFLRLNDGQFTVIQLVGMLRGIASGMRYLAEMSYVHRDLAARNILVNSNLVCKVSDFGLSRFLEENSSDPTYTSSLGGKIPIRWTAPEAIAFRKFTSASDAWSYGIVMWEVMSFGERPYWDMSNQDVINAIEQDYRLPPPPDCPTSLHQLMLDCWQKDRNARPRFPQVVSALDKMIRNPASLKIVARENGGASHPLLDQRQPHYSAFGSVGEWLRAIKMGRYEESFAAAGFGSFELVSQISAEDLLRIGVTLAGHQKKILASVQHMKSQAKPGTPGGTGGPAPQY

[7] = target: Cannabinoid receptor 2 (Homo sapiens) (UniProt P34972); assay: Selectivity interaction (Panel of kinases, GPCRs, ion channels and transporters (enzymatic assay)) EUB0000223bCl CNR2
[8] = target: T3, Dual specificity mitogen-activated protein kinase kinase 4 (Homo sapiens) (UniProt P45985); assay: Selectivity interaction (KinomeScan (DiscoverX)) EUB0001079a MAP2K4; conditions: at 1 µM
T3 sequence (whole entry): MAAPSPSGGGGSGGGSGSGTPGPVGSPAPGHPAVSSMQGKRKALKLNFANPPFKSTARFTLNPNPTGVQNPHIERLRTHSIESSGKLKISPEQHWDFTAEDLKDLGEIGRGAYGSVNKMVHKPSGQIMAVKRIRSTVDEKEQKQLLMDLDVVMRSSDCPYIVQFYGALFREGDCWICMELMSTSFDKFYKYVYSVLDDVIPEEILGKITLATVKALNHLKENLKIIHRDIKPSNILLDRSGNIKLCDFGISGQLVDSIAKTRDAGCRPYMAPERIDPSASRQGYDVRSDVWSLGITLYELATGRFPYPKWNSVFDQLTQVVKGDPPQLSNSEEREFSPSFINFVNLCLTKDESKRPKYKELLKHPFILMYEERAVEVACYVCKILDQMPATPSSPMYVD

[9] = target: STE20-like serine/threonine-protein kinase (Homo sapiens, UniProt Q9H2G2); assay: Selectivity interaction (KinomeScan (DiscoverX)) EUB0001079a SLK; conditions: at 1 µM
[10] = target: Nucleosome-remodeling factor subunit BPTF (Homo sapiens, UniProt Q12830); assay: Selectivity interaction (Bromodomain panel (DSF asssay)) EUB0000270b BPTF
[11] = target: T4, Membrane-associated tyrosine- and threonine-specific cdc2-inhibitory kinase (Homo sapiens) (UniProt Q99640); conditions: at 10 µM
T4 sequence (whole entry): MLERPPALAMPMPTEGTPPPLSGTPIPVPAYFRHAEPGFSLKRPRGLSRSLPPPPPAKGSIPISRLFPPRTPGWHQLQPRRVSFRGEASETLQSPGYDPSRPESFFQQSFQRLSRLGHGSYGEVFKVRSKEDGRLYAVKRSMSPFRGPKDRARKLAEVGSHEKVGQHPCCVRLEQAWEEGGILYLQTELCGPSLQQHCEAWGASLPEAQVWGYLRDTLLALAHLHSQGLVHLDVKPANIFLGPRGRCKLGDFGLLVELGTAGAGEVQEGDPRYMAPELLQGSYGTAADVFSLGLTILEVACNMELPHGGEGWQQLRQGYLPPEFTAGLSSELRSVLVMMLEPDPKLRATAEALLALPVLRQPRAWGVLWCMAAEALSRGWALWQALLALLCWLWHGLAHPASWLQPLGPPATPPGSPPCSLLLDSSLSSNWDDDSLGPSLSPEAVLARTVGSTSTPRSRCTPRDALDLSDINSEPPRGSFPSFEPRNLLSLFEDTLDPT

Sequence of Tyrosine-protein kinase JAK1 (P23458 whole entry): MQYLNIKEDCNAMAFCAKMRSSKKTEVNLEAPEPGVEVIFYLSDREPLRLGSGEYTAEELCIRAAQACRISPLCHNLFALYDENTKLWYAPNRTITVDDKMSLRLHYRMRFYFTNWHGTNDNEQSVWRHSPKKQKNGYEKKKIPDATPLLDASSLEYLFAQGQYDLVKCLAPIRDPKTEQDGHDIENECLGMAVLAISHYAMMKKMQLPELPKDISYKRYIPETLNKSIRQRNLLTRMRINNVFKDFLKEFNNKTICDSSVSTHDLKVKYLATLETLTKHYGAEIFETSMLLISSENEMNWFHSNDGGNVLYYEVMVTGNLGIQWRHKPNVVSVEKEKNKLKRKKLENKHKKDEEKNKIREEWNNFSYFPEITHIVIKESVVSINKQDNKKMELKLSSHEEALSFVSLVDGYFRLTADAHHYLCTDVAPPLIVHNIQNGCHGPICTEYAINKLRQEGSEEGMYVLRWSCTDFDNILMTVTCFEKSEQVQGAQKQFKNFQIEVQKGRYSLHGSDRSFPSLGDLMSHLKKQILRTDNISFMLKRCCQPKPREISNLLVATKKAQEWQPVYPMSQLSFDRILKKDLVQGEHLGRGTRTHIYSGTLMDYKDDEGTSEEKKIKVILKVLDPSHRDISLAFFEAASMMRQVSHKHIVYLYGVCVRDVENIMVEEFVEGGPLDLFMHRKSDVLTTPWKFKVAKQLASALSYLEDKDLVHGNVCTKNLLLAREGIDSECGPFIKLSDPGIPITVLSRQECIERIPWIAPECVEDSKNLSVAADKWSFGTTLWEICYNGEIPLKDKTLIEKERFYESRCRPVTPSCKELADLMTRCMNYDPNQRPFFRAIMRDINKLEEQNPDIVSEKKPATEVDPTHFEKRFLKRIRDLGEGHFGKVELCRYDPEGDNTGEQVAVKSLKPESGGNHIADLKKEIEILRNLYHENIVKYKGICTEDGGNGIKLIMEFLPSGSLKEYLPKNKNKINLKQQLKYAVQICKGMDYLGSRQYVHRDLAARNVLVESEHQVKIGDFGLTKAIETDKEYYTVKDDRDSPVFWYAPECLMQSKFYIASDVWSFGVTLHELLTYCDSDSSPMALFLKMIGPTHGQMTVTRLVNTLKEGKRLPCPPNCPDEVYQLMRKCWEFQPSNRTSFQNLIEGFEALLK
Sequence of AP2-associated protein kinase 1 (Q2M2I8 whole entry, looked up): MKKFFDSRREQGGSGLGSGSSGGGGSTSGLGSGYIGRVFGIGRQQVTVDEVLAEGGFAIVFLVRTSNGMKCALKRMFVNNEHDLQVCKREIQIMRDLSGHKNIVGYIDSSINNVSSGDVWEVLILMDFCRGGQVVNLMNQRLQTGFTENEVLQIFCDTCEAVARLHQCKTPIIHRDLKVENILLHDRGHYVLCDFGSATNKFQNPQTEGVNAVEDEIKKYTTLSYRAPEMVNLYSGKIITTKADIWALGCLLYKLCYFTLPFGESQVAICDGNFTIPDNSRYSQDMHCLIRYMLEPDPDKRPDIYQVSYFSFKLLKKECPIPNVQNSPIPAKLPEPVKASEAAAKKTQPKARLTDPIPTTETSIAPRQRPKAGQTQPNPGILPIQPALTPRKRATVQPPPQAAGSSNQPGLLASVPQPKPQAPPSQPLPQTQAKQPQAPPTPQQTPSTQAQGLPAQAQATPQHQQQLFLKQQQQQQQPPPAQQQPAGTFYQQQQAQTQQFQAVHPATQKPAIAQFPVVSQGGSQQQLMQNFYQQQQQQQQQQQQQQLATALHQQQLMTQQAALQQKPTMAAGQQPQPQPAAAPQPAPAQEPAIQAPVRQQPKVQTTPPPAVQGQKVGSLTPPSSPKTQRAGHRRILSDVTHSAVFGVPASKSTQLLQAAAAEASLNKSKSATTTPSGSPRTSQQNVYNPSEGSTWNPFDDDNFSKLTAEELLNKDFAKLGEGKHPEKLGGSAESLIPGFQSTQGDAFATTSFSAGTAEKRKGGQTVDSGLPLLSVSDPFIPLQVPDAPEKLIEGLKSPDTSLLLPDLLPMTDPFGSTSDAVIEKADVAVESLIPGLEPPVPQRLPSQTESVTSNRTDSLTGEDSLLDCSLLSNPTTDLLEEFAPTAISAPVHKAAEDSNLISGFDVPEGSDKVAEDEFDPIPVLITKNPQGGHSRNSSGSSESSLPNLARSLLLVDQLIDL
Sequence of STE20-like serine/threonine-protein kinase (Q9H2G2 whole entry, looked up): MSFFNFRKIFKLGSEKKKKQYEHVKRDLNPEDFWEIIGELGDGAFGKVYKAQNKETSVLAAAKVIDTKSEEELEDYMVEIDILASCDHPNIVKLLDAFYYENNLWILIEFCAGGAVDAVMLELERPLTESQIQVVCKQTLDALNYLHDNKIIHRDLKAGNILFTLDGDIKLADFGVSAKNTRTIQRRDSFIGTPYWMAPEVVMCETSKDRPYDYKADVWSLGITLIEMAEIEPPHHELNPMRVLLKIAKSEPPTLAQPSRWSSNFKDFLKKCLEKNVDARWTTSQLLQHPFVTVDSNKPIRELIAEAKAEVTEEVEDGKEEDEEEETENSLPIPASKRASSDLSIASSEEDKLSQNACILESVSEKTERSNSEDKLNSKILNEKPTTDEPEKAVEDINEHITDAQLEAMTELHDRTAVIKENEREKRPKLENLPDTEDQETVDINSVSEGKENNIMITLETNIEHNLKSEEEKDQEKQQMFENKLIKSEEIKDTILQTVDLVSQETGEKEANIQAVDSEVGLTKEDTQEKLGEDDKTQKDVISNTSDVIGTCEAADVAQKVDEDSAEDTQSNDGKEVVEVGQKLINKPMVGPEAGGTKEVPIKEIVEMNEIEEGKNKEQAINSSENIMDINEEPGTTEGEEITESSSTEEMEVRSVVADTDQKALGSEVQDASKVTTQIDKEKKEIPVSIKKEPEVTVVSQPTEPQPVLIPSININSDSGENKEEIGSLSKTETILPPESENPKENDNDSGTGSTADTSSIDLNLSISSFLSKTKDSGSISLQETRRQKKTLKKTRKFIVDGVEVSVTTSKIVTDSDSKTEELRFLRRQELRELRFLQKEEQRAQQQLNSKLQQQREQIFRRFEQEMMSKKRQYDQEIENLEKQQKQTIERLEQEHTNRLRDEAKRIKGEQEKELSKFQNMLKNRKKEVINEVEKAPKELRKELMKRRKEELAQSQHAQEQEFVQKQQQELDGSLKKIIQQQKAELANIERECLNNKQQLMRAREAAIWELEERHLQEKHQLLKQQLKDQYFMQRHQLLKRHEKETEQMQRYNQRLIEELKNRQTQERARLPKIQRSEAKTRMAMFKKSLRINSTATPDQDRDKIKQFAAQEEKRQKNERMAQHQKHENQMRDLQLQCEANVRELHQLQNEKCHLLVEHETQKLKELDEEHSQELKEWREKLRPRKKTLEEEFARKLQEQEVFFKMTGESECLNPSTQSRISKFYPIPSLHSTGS
Sequence of Cannabinoid receptor 2 (Homo sapiens) (P34972 whole entry): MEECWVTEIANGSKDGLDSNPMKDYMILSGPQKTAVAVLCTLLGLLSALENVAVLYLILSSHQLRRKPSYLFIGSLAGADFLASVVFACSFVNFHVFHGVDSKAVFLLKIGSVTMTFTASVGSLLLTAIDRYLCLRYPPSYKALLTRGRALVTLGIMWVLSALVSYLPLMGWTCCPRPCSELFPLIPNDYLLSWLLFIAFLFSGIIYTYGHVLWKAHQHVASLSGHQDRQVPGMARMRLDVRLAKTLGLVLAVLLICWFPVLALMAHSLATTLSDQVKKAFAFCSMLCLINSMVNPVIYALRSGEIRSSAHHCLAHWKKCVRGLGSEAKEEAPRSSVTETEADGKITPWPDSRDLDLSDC
Sequence of Cyclin-dependent kinase 4/cyclin D1 (P11802 whole entry): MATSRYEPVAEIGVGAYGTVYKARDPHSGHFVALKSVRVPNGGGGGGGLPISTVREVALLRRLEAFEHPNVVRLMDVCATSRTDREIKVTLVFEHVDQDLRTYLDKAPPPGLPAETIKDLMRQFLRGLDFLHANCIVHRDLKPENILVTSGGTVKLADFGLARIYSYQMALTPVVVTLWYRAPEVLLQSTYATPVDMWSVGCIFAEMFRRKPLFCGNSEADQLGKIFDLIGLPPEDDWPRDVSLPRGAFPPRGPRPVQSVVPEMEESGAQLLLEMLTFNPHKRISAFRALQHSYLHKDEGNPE
Sequence of Cyclin-dependent kinase 4/cyclin D1 (P24385 whole entry, further chain): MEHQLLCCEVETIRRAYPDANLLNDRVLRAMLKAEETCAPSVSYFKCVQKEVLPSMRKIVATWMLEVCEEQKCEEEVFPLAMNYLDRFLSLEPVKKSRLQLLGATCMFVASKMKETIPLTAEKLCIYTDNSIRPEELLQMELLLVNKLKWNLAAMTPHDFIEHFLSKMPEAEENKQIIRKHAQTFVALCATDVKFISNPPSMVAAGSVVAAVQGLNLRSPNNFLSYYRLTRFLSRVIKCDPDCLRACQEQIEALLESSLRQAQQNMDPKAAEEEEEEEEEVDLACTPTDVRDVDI

% of inhibition [1]: 4.16%
Kd [2]: > 10 µM
Compound: Cn1cc(-n2cnc3c(NCc4nc5cc(Cl)c(Cl)cc5[nH]4)nc(N4CCOCC4)nc32)cn1

% of inhibition [3]: -1.1%
% of inhibition [4]: 0.275%
Compound: CC[C@@H]1[C@H](F)C(=O)N[C@@H]1COc1nccc2cc(C(N)=O)c(OC)cc12 [ZIMLOVISERTIB]

Compound: Cc1cc(F)c(C(=O)Nc2cccc(-c3nncn3C(C)C)n2)cc1-n1cnc(C2CC2)c1
% of control [5]: 90%

Compound: COc1cc(Nc2nc(C)cc(-c3cnn4nc(OC)ccc34)n2)cc(C(F)(F)F)c1
% of control [6]: 94%

Compound: COc1cc(C(=O)N2CC[C@@H](O)[C@@H](N)C2)cc2nc(-c3cc4ccccc4n3CC3CC3)n(C)c12
pXC50 [7]: < 4.5 M

Compound: Nc1cnc(N2CCc3cc(S(=O)(=O)Nc4c(F)cc(Cl)cc4F)cc(N4CCCC4=O)c32)nc1 [TP-020n]
% of control [8]: 100%
% of control [9]: 100%

dTM [10]: -2.3 K
Compound: Cc1cc(CN)cc(C)c1-c1ncn(C)c1-c1cncn1C

Compound: Cc1cc([C@@H](C)Nc2ccccc2C(=O)O)c2nc(N3CCOCC3)cc(=O)n2c1 [AZD-6482]
% of control [11]: 100%
